Assay results: patent publication US6355799B1, “Substituted benzene compounds, process for their preparation, and herbicidal and defoliant compositions containing them” (ISK Americas Incorporated, priority 1997, dated 2002)

What was measured:
Format in all cases: in vivo
[1] = system: barnyardgrass (Echinochloa crus-galli, ECHCG); experiment: Pre-emerge test, greenhouse herbicide activity screening; settings: pre-emerge, rated 14 days after application, 0 = no damage, 100 = complete death
Method in brief: (§1)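 Applied at 15–1000 g ai/ha from acetone in 187 l/ha spray volume. Post-emergence applications included 0.25% v/v non-ionic surfactant and reached plants sown 8–21 days before. Pre-emergence applications were incorporated by surface watering. Efficacy or crop damage was rated on a 0–100 scale after 14 days.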

[2] = system: ivyleaf morningglory (Ipomoea hederacea, IPOHE); experiment: as above; settings: pre-emerge, rated 14 days after application, 0 = no damage, 100 = complete death
Method in brief: as §1

[3] = system: lambsquarters (Chenopodium album, CHEAL); experiment: as above; settings: pre-emerge, rated 14 days after application, 0 = no damage, 100 = complete death
Method in brief: as §1

[4] = system: velvetleaf (Abutilon theophrasti, ABUTH); experiment: as above; settings: pre-emerge, rated 14 days after application, 0 = no damage, 100 = complete death
Method in brief: as §1

[5] = system: green foxtail (Setaria viridis, SETVI); experiment: as above; settings: pre-emerge, rated 14 days after application, 0 = no damage, 100 = complete death
Method in brief: as §1

[6] = system: large crabgrass (Digitaria sanguinalis, DIGSA); experiment: as above; settings: pre-emerge, rated 14 days after application, 0 = no damage, 100 = complete death
Method in brief: as §1

[7] = system: sicklepod (Cassia obtusifolia, CASOB); experiment: as above; settings: pre-emerge, rated 14 days after application, 0 = no damage, 100 = complete death
Method in brief: as §1

[8] = system: johnsongrass (Sorghum halepense, SORHA); experiment: as above; settings: pre-emerge, rated 14 days after application, 0 = no damage, 100 = complete death
Method in brief: as §1

[9] = system: barnyardgrass (Echinochloa crus-galli, ECHCG); experiment: Post-emerge test, greenhouse herbicide activity screening; settings: Echinochloa crus-galli, post-emergence, 336 h, phytotoxicity rating 0-100 (0 no damage, 100 complete death), 14 days after application, read-out: Post-emerge Herbicidal Activity ECHCG
Method in brief: (§2)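 Sandy loam pots; pre-emerge: sown 1 d pre-spray, surface-watered after, then bottom-watered. Post-emerge: sown 8–21 d before, 2–3 leaf stage, + 0.25% v/v NIS, bottom-watered. Acetone, 187 l/ha track spray, 15–1000 g ai/ha. 0–100 injury score, day 14.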

[10] = system: ivyleaf morningglory (Ipomoea hederacea, IPOHE); experiment: as above; settings: Ipomoea, post-emergence, 336 h, phytotoxicity rating 0-100 (0 no damage, 100 complete death), 14 days after application, read-out: Post-emerge Herbicidal Activity IPOHE
Method in brief: as §2

[11] = system: velvetleaf (Abutilon theophrasti, ABUTH); experiment: as above; settings: Abutilon theophrasti, post-emergence, 336 h, phytotoxicity rating 0-100 (0 no damage, 100 complete death), 14 days after application, read-out: Post-emerge Herbicidal Activity ABUTH
Method in brief: as §2

[12] = system: green foxtail (Setaria viridis, SETVI); experiment: as above; settings: Setaria viridis, post-emergence, 336 h, phytotoxicity rating 0-100 (0 no damage, 100 complete death), 14 days after application, read-out: Post-emerge Herbicidal Activity SETVI
Method in brief: as §2

[13] = system: sicklepod (Cassia obtusifolia, CASOB); experiment: as above; settings: Senna obtusifolia, post-emergence, 336 h, phytotoxicity rating 0-100 (0 no damage, 100 complete death), 14 days after application, read-out: Post-emerge Herbicidal Activity CASOB
Method in brief: as §2

[14] = system: johnsongrass (Sorghum halepense, SORHA); experiment: as above; settings: Sorghum halepense, post-emergence, 336 h, phytotoxicity rating 0-100 (0 no damage, 100 complete death), 14 days after application, read-out: Post-emerge Herbicidal Activity SORHA
Method in brief: as §2

Cn1c(C(F)(F)F)cc(=O)n(-c2c(F)cc(Cl)c(OC(F)F)c2N)c1=O [Compound 1-38, 3-(2-amino-4-chloro-3-difluoromethoxy-6-fluorophenyl)-1-methyl-6-trifluoromethyl-2,4(1H, 3H)-pyrimidinedione]
Pre-emerge Herbicidal Activity ECHCG (phytotoxicity rating, scale 0-100) ([1]; 63 g ai/ha): 95
Pre-emerge Herbicidal Activity ECHCG (phytotoxicity rating, scale 0-100) ([1]; 250 g ai/ha): 100
Pre-emerge Herbicidal Activity IPOHE (phytotoxicity rating, scale 0-100) ([2]; 63 g ai/ha): 100
Pre-emerge Herbicidal Activity IPOHE (phytotoxicity rating, scale 0-100) ([2]; 250 g ai/ha): 100
Pre-emerge Herbicidal Activity CHEAL (phytotoxicity rating, scale 0-100) ([3]; 63 g ai/ha): 100
Pre-emerge Herbicidal Activity CHEAL (phytotoxicity rating, scale 0-100) ([3]; 250 g ai/ha): 100
Pre-emerge Herbicidal Activity ABUTH (phytotoxicity rating, scale 0-100) ([4]; 63 g ai/ha): 100
Pre-emerge Herbicidal Activity ABUTH (phytotoxicity rating, scale 0-100) ([4]; 250 g ai/ha): 100
Pre-emerge Herbicidal Activity SETVI (phytotoxicity rating, scale 0-100) ([5]; 63 g ai/ha): 100
Pre-emerge Herbicidal Activity SETVI (phytotoxicity rating, scale 0-100) ([5]; 250 g ai/ha): 100
Pre-emerge Herbicidal Activity DIGSA (phytotoxicity rating, scale 0-100) ([6]; 63 g ai/ha): 100
Pre-emerge Herbicidal Activity DIGSA (phytotoxicity rating, scale 0-100) ([6]; 250 g ai/ha): 100
Pre-emerge Herbicidal Activity CASOB (phytotoxicity rating, scale 0-100) ([7]; 63 g ai/ha): 100
Pre-emerge Herbicidal Activity CASOB (phytotoxicity rating, scale 0-100) ([7]; 250 g ai/ha): 100
Pre-emerge Herbicidal Activity SORHA (phytotoxicity rating, scale 0-100) ([8]; 63 g ai/ha): 90
Pre-emerge Herbicidal Activity SORHA (phytotoxicity rating, scale 0-100) ([8]; 250 g ai/ha): 100
pest or weed control at 63 g/ha ([9]; 63 g ai/ha): 0%
pest or weed control at 250 g/ha ([9]; 250 g ai/ha): 80%
pest or weed control at 63 g/ha ([10]; 63 g ai/ha): 80%
pest or weed control at 250 g/ha ([10]; 250 g ai/ha): 100%
pest or weed control at 63 g/ha ([11]; 63 g ai/ha): 100%
pest or weed control at 250 g/ha ([11]; 250 g ai/ha): 100%
pest or weed control at 63 g/ha ([12]; 63 g ai/ha): 10%
pest or weed control at 250 g/ha ([12]; 250 g ai/ha): 80%
pest or weed control at 63 g/ha ([13]; 63 g ai/ha): 50%
pest or weed control at 250 g/ha ([13]; 250 g ai/ha): 90%
pest or weed control at 63 g/ha ([14]; 63 g ai/ha): 0%
pest or weed control at 250 g/ha ([14]; 250 g ai/ha): 80%
